Test results from US5763443A, “MDR resistance treatment and novel pharmaceutically active riminophenazines” (priority 1994, dated 1998).
In brackets after ≈: the same amount, converted by molar mass. Read-outs that look alike come from different tables or passages of the source.

Key:
in vitro = conditions: human, h69/lx4 cells
Method: (§1) The riminophenazines of the above formula (I), contain an imino group. […] The potency of compounds of the above general formula, as inhibitors of multi-drug resistance, was assessed by sensitization of a P-glycoprotein positive cell line to drugs associated with this form of resistance. A human small cell lung cancer cell line H 69/P as well as a multi-drug resistance (MDR) sub-line H69/LX4 were used. These cell lines were obtained from the Medical Research Council Clinical Oncology and Radiotherapeutics Unit, Hills Road, Cambridge, England. The H69/LX4 line was selected in vitro by progressive exposure to increasing concentrations of doxorubicin in order to increase P-glycoprotein expression.
(§2) The cell lines used were human small cell lung cancer cell line HP69/P and a multi-drug resistant (MDR) sub-line H69/LX4, both of which were supplied by the MRC Clinical Oncology and Radiotherapeutics Unit, Hills Road, Cambridge, England. The maintenance of the cell lines and drug response assays was done as described by Twentyman et al in British Journal of Cancer Volume 65 pages 335-340. The H69/LX4 line was originally described by Twentyman et al in British Journal of Cancer Volume 53, pages 529-637 (1986).
(§3) The data in parenthesis represents fold sensitivity compared with the chemotherapeutic agent without the MDR inhibitor.
(§4) The results obtained, are illustrated graphically in FIGS. 4 to 7 of the accompanying drawings.
(§5) The general procedure set forth above was followed, i.e. 7 days incubation in the4 presence of doxorubicin at 12,5 ng/ml or vinblastine at 25 or 3 ng/ml.
(§6) The effects were examined over a seven (7) day exposure to different concentrations of B4119 and B4125 on the sensitivity of a doxorubicin resistant leukaemia cell line (K562/MMB) and a lung carcinoma cell line (H69/LX4) to doxorubicin (dox) and vinblastine (VB) using the MTT assay.

[1] = test system: multi-drug resistant (MDR) lung carcinoma cell line H69/LX4; assay: in vitro; conditions: for IC50: Homo sapiens; for INCREASED SENSITIVITY H69/Lx4: Table VIII, values equal IC50 NONE / IC50 with VB 25 ng/ml of Table VII, 10080 min
Method: as §1, §2, §3, §4, §5, §6

[2] = test system: MDR leukaemia cell line K562/MMB; assay: cells; conditions: for MDR activity / sensitivity against cell line K562/MMP: compared with known reference compound B4100
Method: A third cell line (562/MMB) used was a MDR leukemia cell line selected in vitro by progressive exposure to increasing concentrations of vinblastine in order to increase P-glycoprotein expression. This cell line was developed in the Department of Immunology, University of Pretoria from K562 (ATCC CCL 243) supplied by Highveld Biological (Pty) Ltd, Sandton.
as §5, §6

[3] = bio-availability (no method given)
H69/LX4 cells = assay: [14C]-vinblastine accumulation in MDR cell line; type: cell-based, human; conditions: 1 hour pretreatment, 30 minutes [14C]-vinblastine
Method: The effect of riminophenazines on the accumulation of [^14 C]-vinblastine was investigated. For these experiments, both of the above cell lines (H69/LX4 and H69/P) were prepared as described by Coley et al (Biochem. Pharmacal 38, 4467-4475 (1989)). After a 1 hour pretreatment with the MDR reversal agents, cells (1×10^6 /ml) were exposed to […] [^14 C]-vinblastine (1 μCi specific activity) for 30 minutes.

[4] = test system: human small cell lung cancer cell line H69/P; assay: MTT assay, 7 day exposure, sensitivity of parent cell line H69/P to chemotherapeutic agents; type: cell-based
Method: as §1, §2, §3

[5] = 168 h, read-out: IC 50 H69/Lx4 NONE
[6] = read-out: IC 50 H69/Lx4 DOX 12 ng/ml
[7] = read-out: IC 50 H69/Lx4 VB 25 ng/ml
[8] = Table VIII, values equal IC50 NONE / IC50 with VB 3 ng/ml of Table VII, 10080 min
[9] = H69/LX4, CsA 5 μg/ml, clofazimine 1 μg/ml or B669 0.5 μg/ml
[10] = H69/P, CsA 5 μg/ml, clofazimine 1 μg/ml or B669 0.5 μg/ml

Compound: CC1(C)CC(N=c2cc3n(-c4cc(Cl)c(Cl)c(Cl)c4)c4ccccc4nc-3cc2Nc2cc(Cl)c(Cl)c(Cl)c2)CC(C)(C)N1 [Compound B4169, N,5-bis(3,4,5-trichiorophenyl)-3,5-dihydro-3-[(2',2',6',6'-tetramethyl-4-piperidyl)-imino]-2-phenazinamine]
- MNTC at 168 h (in vitro): > 12.5 µg/mL
- MDR reversal properties ([1]; H69/LX4, with doxorubicin 12,5 ng/ml or vinblastine 25 ng/ml, FIGS. 4 to 7): Very good MDR reversal properties
- IC50 [1, 5]: 1.57 µg/mL (≈ 2.21 µM)
- IC50 [1, 6]: 1.08 µg/mL (≈ 1.53 µM)
- IC50 [1, 7]: 0.213 µg/mL (≈ 0.301 µM)
- INCREASED SENSITIVITY H69/Lx4 [1]: 7.36
- INCREASED SENSITIVITY K 562/MMB [2, 8]: 24.66
- MDR activity / sensitivity against cell line K562/MMP [2]: increased substantially and unexpectedly
- bio-availability [3]: good bio-availability

Compound: CC(C)N=c1cc2n(-c3ccc(Cl)cc3)c3ccccc3nc-2cc1Nc1ccc(Cl)cc1 [Compound B663, N,5-bis-(4-chlorophenyl)-3,5-dihydro-3-[(1-methylethyl)imino]-2-phenazinamine, reference compound]
- fold sensitivity to Etoposide compared with agent without MDR inhibitor ([1]; 168 h, 1 ug/mL): 5.0 fold
- fold sensitivity to Cyclophosphamide compared with agent without MDR inhibitor [1, 9]: 1.0 fold
- fold sensitivity to Daunorubicin compared with agent without MDR inhibitor [1, 9]: 4 fold
- fold sensitivity to Doxorubicin compared with agent without MDR inhibitor [1, 9]: 11 fold
- fold sensitivity to Methotrexate compared with agent without MDR inhibitor [1, 9]: 0.7 fold
- fold sensitivity to Mitomycin C compared with agent without MDR inhibitor [1, 9]: 1.7 fold
- fold sensitivity to Vinblastine compared with agent without MDR inhibitor [1, 9]: ~13 fold
- fold sensitivity to Vinblastine compared with agent without MDR inhibitor ([1]; H69/LX4, CsA 5 μg/ml, clofazimine 1 μg/ml or B669 0.5 μg/ml, listed as Clofazimine (B663)): 13.7 fold
- IC50 [1, 5]: 2.5 µg/mL (≈ 5.28 µM)
- IC50 [1, 6]: 1.31 µg/mL (≈ 2.78 µM)
- IC50 [1, 7]: 0.372 µg/mL (≈ 0.786 µM)
- INCREASED SENSITIVITY H69/Lx4 [1]: 6.72
- IC50 ([2]; Homo sapiens, K562, read-out: IC 50 K562/MMB VB 3 ng/ml, Table VII, with vinblastine 3 ng/ml): 0.038 µg/mL (≈ 0.0803 µM)
- INCREASED S[…] 562/MMB [2, 8]: 5.92
- MDR activity / sensitivity against cell line K562/MMP [2]: good activity
- vinblastine accumulation in the MDR cell line (H69/LX4 cells): significant enhancement
- fold sensitivity to Etoposide compared with agent without MDR inhibitor ([4]; 168 h, 1 ug/mL): 0.6 fold
- fold sensitivity to Cyclophosphamide compared with agent without MDR inhibitor [4, 10]: 0.9 fold
- fold sensitivity to Daunorubicin compared with agent without MDR inhibitor [4, 10]: 1.0 fold
- fold sensitivity to Doxorubicin compared with agent without MDR inhibitor [4, 10]: 0.8 fold
- fold sensitivity to Methotrexate compared with agent without MDR inhibitor [4, 10]: 0.9 fold
- fold sensitivity to Mitomycin C compared with agent without MDR inhibitor [4, 10]: 0.7 fold
- fold sensitivity to Vinblastine compared with agent without MDR inhibitor [4, 10]: 1.3 fold
